Measurements taken from US9480259B2, “Pyrazolopyrans having herbicidal and pharmaceutical properties” (BASF SE, priority 2012, dated 2016).

Molecular target: Arabidopsis thaliana SHMT
Experiment: SHMT activity assay (ED50 SHMT), coupled with N5,N10-CH2-THF dehydrogenase, NADH at 340 nm
Assay type: biochemical
In short: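 His-tagged SHMT purified on Ni-NTA. NADH formation followed at 340 nm for 30 min; ED50 from inhibition of initial velocity.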

[1] = inhibition of initial velocity of Arabidopsis thaliana SHMT
[2] = Table 2, Arabidopsis thaliana SHMT enzyme assay, values given as upper bounds
[3] = Table 2, values given as upper bounds
[4] = Arabidopsis thaliana SHMT enzyme assay, values given as upper bounds

SMILES	EC50 [3] [µM]	further results
Cc1csc(C2(C3CC3)C(C#N)=C(N)Oc3[nH]nc(C)c32)c1 (racemic) [Compound 4.70]	–	EC50 [1]: < 1 µM
Cc1n[nH]c2c1C(c1ccc(F)c(Cl)c1)(C1CCCC1)C(C#N)=C(N)O2 (stereo not shown) [Compound 2.228]	–	EC50 [2]: < 0.1 µM
Cc1n[nH]c2c1C(c1cc(C#N)cc(C(F)(F)F)c1)(C1CC=CC1)C(C#N)=C(N)O2 (stereo not shown) [Compound 2.367]	–	EC50 [2]: < 0.01 µM
Cc1n[nH]c2c1C(c1ccc(CCC(=O)O)c(C(F)(F)F)c1)(C1CCC1)C(C#N)=C(N)O2 (stereo not shown) [Compound 2.543]	< 0.1	–
CCCc1n[nH]c2c1C(CC)(c1cccc(C(F)(F)F)c1)C(C#N)=C(N)O2 (racemic) [Compound 2.99.]	< 10	–
Cc1n[nH]c2c1C(c1cc(Cl)cc(Oc3cccc(F)c3)c1)(C1CCC1)C(C#N)=C(N)O2 (stereo not shown) [Compound 2.200.]	< 0.1	–
CCC1(c2ccc(Oc3ccccc3)cc2)C(C#N)=C(N)Oc2[nH]nc(C)c21 (stereo not shown) [Compound 2.8.]	< 1	–
CCC1(c2cccc(Cl)c2)C(C#N)=C(N)Oc2[nH]nc(CCC(F)F)c21 (stereo not shown) [Compound 2.105.]	< 10	–
CCCC1(c2cc(Br)cc(C#N)c2)C(C#N)=C(N)Oc2[nH]nc(COC)c21 (stereo not shown) [Compound 2.592]	< 1	–
COC(=O)c1ccc(-c2cc(C#N)cc(C3(C4CCC4)C(C#N)=C(N)Oc4[nH]nc(C)c43)c2)cc1 (stereo not shown) [Compound 2.455]	< 0.1	–
CCC1(c2cc(C(F)(F)F)cc(C(F)(F)F)c2)C(C#N)=C(N)Oc2[nH]nc(COC)c21 (stereo not shown) [Compound 2.82.]	< 1	–
Cc1n[nH]c2c1C(c1cc(C#N)cc(-c3ccc(C(=O)O)s3)c1)(C1CCC1)C(C#N)=C(N)O2 (stereo not shown) [Compound 2.640]	< 0.01	–
CCC1(c2ccc(F)c(Br)c2)C(C#N)=C(N)Oc2[nH]nc(C)c21 (racemic) [Compound 2.13.]	< 0.1	–
Cc1n[nH]c2c1C(c1cc(Br)cc(Br)c1)(C1CC(F)(F)C1)C(C#N)=C(N)O2 (stereo not shown) [Compound 2.703]	–	EC50 [4]: < 0.1 µM
Cc1n[nH]c2c1C(c1cc(F)c(O)c(F)c1)(C1CCC1)C(C#N)=C(N)O2 (stereo not shown) [Compound 2.449]	< 0.1	–
Cc1n[nH]c2c1C(c1cc(Cl)cc(-c3cccs3)c1)(C1CC1)C(C#N)=C(N)O2 (stereo not shown) [Compound 2.276]	–	EC50 [2]: < 1 µM
COc1ccc(C2(C(C)C)C(C#N)=C(N)Oc3[nH]nc(C)c32)cc1Cl (stereo not shown) [Compound 2.124.]	< 0.01	–
Cc1n[nH]c2c1C(c1cccc(C(F)(F)F)c1)(C1CC1)C(C#N)=C(N)O2 (stereo not shown) [Compound 2.60.]	< 1	–
Cc1n[nH]c2c1C(c1cccc([N+](=O)[O-])c1)(C(F)(F)F)C(C#N)=C(N)O2 (stereo not shown) [Compound 2.68.]	< 1	–
Cc1n[nH]c2c1C(CC(C)C)(c1ccc(Cl)cc1)C(C#N)=C(N)O2 (stereo not shown) [Compound 2.142.]	< 10	–
Cc1n[nH]c2c1C(c1cc(-c3ccccc3)cs1)(C1CC1)C(C#N)=C(N)O2 (stereo not shown) [Compound 4.64]	–	EC50 [1]: < 1 µM
CCCC1(c2cc(Cl)cc(C#N)c2)C(C#N)=C(N)Oc2[nH]nc(CC)c21 (stereo not shown) [Compound 2.577]	< 0.1	–
Cc1n[nH]c2c1C(c1cc(-c3ccsc3)cs1)(C1CCC1)C(C#N)=C(N)O2 (stereo not shown) [Compound 4.33]	–	EC50 [1]: < 0.01 µM

SMILES	EC50 [3] [µM]	further results
Cc1n[nH]c2c1C(c1cc(Cl)c(OCC(=O)O)c(Cl)c1)(C1CCC1)C(C#N)=C(N)O2 (stereo not shown) [Compound 2.504]	< 1	–
Cc1n[nH]c2c1C(c1cc(Cl)cc(Cl)c1)(C1CC1(F)F)C(C#N)=C(N)O2 (stereo not shown) [Compound 2.270]	–	EC50 [2]: < 0.01 µM
Cc1n[nH]c2c1C(c1cc(I)cc(I)c1)(C1CCC1)C(C#N)=C(N)O2 (stereo not shown) [Compound 2.308]	–	EC50 [2]: < 0.01 µM
Cc1n[nH]c2c1C(c1cc(Cl)cc(-c3cccc(NS(C)(=O)=O)c3)c1)(C1CCC1)C(C#N)=C(N)O2 (racemic) [Compound 2.527]	< 0.01	–
COc1c(Br)cc(C2(C3CCC3)C(C#N)=C(N)Oc3[nH]nc(C)c32)cc1C#N (stereo not shown) [Compound 2.492]	< 0.01	–
Cc1n[nH]c2c1C(c1cc(Cl)cc(Oc3cccc(Cl)c3)c1)(C1CCC1)C(C#N)=C(N)O2 (stereo not shown) [Compound 2.237]	–	EC50 [2]: < 0.01 µM
CCC1(c2cc(Cl)cc(Cl)c2)C(C#N)=C(N)Oc2[nH]nc(C(C)C)c21 (stereo not shown) [Compound 2.132.]	< 1	–
CCC1(c2cc(Cl)cc(Br)c2)C(C#N)=C(N)Oc2[nH]nc(C)c21 (stereo not shown) [Compound 2.468]	< 0.01	–
Cc1n[nH]c2c1C(c1cc(C#N)cc(-c3ccc(C(=O)O)c(C(=O)O)c3)c1)(C1CCC1)C(C#N)=C(N)O2 (stereo not shown) [Compound 2.565]	< 0.01	–
Cc1n[nH]c2c1C(c1ccc(Cl)c(OC(F)(F)F)c1)(C1CCC1)C(C#N)=C(N)O2 (stereo not shown) [Compound 2.289]	–	EC50 [2]: < 0.01 µM
Cc1n[nH]c2c1C(c1cc(Cl)cc(Oc3ccc(F)cc3)c1)(C1CCC1)C(C#N)=C(N)O2 (stereo not shown) [Compound 2.201.]	< 0.1	–
Cc1n[nH]c2c1C(c1cc3cc(Cl)ccc3o1)(C1CCC1)C(C#N)=C(N)O2 (stereo not shown) [Compound 4.7]	–	EC50 [1]: < 0.01 µM
CCCC1(c2cc(Cl)cc(C#N)c2)C(C#N)=C(N)Oc2[nH]nc(C(C)C)c21 (stereo not shown) [Compound 2.584]	< 0.01	–
CCC1(c2ccc(OS(=O)(=O)c3ccc(Cl)cc3Cl)c(C)c2)C(C#N)=C(N)Oc2[nH]nc(C)c21 (stereo not shown) [Compound 2.59.]	< 10	–
Cc1n[nH]c2c1C(c1ccc3c(c1)OCCO3)(C1(F)CC1)C(C#N)=C(N)O2 (racemic) [Compound 4.51]	–	EC50 [1]: < 0.1 µM
Cc1n[nH]c2c1C(CC(C)C)(c1ccc(Cl)c(Cl)c1)C(C#N)=C(N)O2 (stereo not shown) [Compound 2.141.]	< 1	–
Cc1n[nH]c2c1C(c1cc(CNC(=O)CCC(=O)O)cc(C(F)(F)F)c1)(C1CCC1)C(C#N)=C(N)O2 (stereo not shown) [Compound 2.649]	< 0.01	–
COC(=O)CCS(=O)(=O)N(C)c1cc(C#N)cc(C2(C3CCC3)C(C#N)=C(N)Oc3[nH]nc(C)c32)c1 (stereo not shown) [Compound 2.723]	–	EC50 [4]: < 0.1 µM
Cc1n[nH]c2c1C(c1cc(C#N)cc(Cc3nnn[nH]3)c1)(C(C)C)C(C#N)=C(N)O2 (stereo not shown) [Compound 2.738]	–	EC50 [4]: < 0.1 µM
Cc1n[nH]c2c1C(c1cc(Cl)c(Cl)c(Cl)c1)(C1CCC1)C(C#N)=C(N)O2 (stereo not shown) [Compound 2.209.]	< 0.01	–
CCC1(c2ccc3c(c2)C(C)(C)CCC3(C)C)C(C#N)=C(N)Oc2[nH]nc(C)c21 (stereo not shown) [Compound 4.69]	–	EC50 [1]: < 1 µM
CC(C)c1n[nH]c2c1C(c1ccc(Cl)cc1)(C1CC1)C(C#N)=C(N)O2 (stereo not shown) [Compound 2.128.]	< 10	–
Cc1n[nH]c2c1C(c1ccc(CCC#N)c(C#N)c1)(C1CCC1)C(C#N)=C(N)O2 (stereo not shown) [Compound 2.647]	< 0.01	–

SMILES	EC50 [3] [µM]	further results
Cc1n[nH]c2c1C(c1cc(C#N)cc(C(F)(F)F)c1)(C(C)C)C(C#N)=C(N)O2 (stereo not shown) [Compound 2.338]	–	EC50 [2]: < 0.01 µM
CCCC1(c2cc(C#N)cc(C#N)c2)C(C#N)=C(N)Oc2[nH]nc(CC)c21 (stereo not shown) [Compound 2.579]	< 0.1	–
Cc1n[nH]c2c1C(c1ccc(N3CCCC3)c(Cl)c1)(C1CCC1)C(C#N)=C(N)O2 (stereo not shown) [Compound 2.268]	–	EC50 [2]: < 0.01 µM
Cc1n[nH]c2c1C(c1cc(Cl)cc(CC#N)c1)(C1CCC1)C(C#N)=C(N)O2 (stereo not shown) [Compound 2.568]	< 0.01	–
Cc1n[nH]c2c1C(c1cc(C#N)cc(-c3cc(C(=O)O)cs3)c1)(C(C)C)C(C#N)=C(N)O2 (stereo not shown) [Compound 2.686]	–	EC50 [4]: < 0.1 µM
Cc1n[nH]c2c1C(c1ccc(-c3ccccc3)s1)(C1CCC1)C(C#N)=C(N)O2 (stereo not shown) [Compound 4.10]	–	EC50 [1]: < 0.01 µM
COc1c(Cl)cc(C2(C(C)C)C(C#N)=C(N)Oc3[nH]ncc32)cc1Cl (stereo not shown) [Compound 2.330]	–	EC50 [2]: < 0.01 µM
CCC1(c2cc(Cl)cc(C#N)c2)C(C#N)=C(N)Oc2[nH]nc(C)c21 (stereo not shown) [Compound 2.529]	< 0.01	–
COc1c(F)cc(C2(C3(F)CC3)C(C#N)=C(N)Oc3[nH]nc(C)c32)cc1F (stereo not shown) [Compound 2.448]	< 1	–
Cc1n[nH]c2c1C(c1ccc(-c3cccc(F)c3)s1)(C1CCC1)C(C#N)=C(N)O2 (stereo not shown) [Compound 4.14]	–	EC50 [1]: < 0.01 µM
Cc1n[nH]c2c1C(c1ccc3c(c1)nnn3C(C)C)(C1CCC1)C(C#N)=C(N)O2 (stereo not shown) [Compound 4.42]	–	EC50 [1]: < 0.01 µM
Cc1n[nH]c2c1C(c1cc(C#N)cc(C#N)c1)(C1(F)CC1)C(C#N)=C(N)O2 (stereo not shown) [Compound 2.383]	–	EC50 [2]: < 0.01 µM
Cc1n[nH]c2c1C(c1cc(Cl)cc(-c3ccoc3)c1)(C1CCC1)C(C#N)=C(N)O2 (stereo not shown) [Compound 2.220]	–	EC50 [2]: < 0.01 µM
COc1ccc(C2(C3(F)CC3)C(C#N)=C(N)Oc3[nH]nc(C)c32)cc1Cl (stereo not shown) [Compound 2.260]	–	EC50 [2]: < 0.01 µM
CCC1(c2cc(C)co2)C(C#N)=C(N)Oc2[nH]nc(C)c21 (stereo not shown) [Compound 4.79]	–	EC50 [1]: < 10 µM
Cc1n[nH]c2c1C(c1cc(Br)cc(C#N)c1)(C(C)C)C(C#N)=C(N)O2 (stereo not shown) [Compound 2.334]	–	EC50 [2]: < 0.01 µM
Cc1n[nH]c2c1C(c1cc(C#N)cc(NS(C)(=O)=O)c1)(C1CCC1)C(C#N)=C(N)O2 (stereo not shown) [Compound 2.704]	–	EC50 [4]: < 0.1 µM
CCC1(c2cc(Cl)cc(Cl)c2)C(C#N)=C(N)Oc2[nH]ncc21 (stereo not shown) [Compound 2.62.]	< 10	–
Cc1n[nH]c2c1C(c1ccc(F)c(C#N)c1)(C1CCC1)C(C#N)=C(N)O2 (stereo not shown) [Compound 2.269]	–	EC50 [2]: < 0.01 µM
Cc1n[nH]c2c1C(c1cc(Cl)cc(N(C)C(=O)CCCC#N)c1)(C1CCC1)C(C#N)=C(N)O2 (stereo not shown) [Compound 2.700]	–	EC50 [4]: < 0.1 µM
Cc1n[nH]c2c1C(c1cc(Cl)cc(N(C)C(=O)CCc3nnn[nH]3)c1)(C1CCC1)C(C#N)=C(N)O2 (stereo not shown) [Compound 2.698]	–	EC50 [4]: < 0.1 µM
